Source: patent US8455497B2, “Inhibitors of aspartyl protease” (Vertex Pharmaceuticals Incorporated, priority 1999, dated 2013)
Read-outs that look alike come from different tables or passages of the source.

Test system: HIV-1 (strain IIIB)
Experiment: Antiviral activity assay in MT4 cells (propidium iodide based)
Format: cell-based
Method: Antiviral Activity Assay in MT4 Cells
Aliquots of the test compounds were serially diluted in medium (RPMI 1640, 10% fetal calf serum (FCS), and gentamycin) in 96-well plates (Costar 3598) using a Cetus Pro/Pette. Exponentially growing MT4 cells were harvested and centrifuged at 1000 rpm for 10 min in a Jouan centrifuge (model CR 4 12). Cell pellets were resuspended in fresh medium (RPMI 1640, 20% FCS, 20% IL-2, and gentamycin) to a density of 5×10^5 cells/ml. Cell aliquots were infected by the addition of HIV-1 (strain IIIB) diluted to give a viral multiplicity of infection of 100×TCID50. A similar cell aliquot was diluted with medium to provide a mock-infected control. Cell infection was allowed to proceed for 1 hr at 37° in a tissue culture incubator with humidified 5% CO2 atmosphere. After the 1 hr incubation the virus/cell suspensions were diluted 6-fold with fresh medium, and 125 μl of the cell suspension was added to each well of the plate containing pre-diluted compound. Plates were then placed in a tissue culture incubator with humidified 5% CO2 for 5 days. At the end of the incubation period, 27 μl of 5% Nonidet-40 was added to each well of the incubation plate. After thorough mixing with a Costar multitip pipetter, 60 μl of the mixture was transferred to filter-bottomed 96-well plates. The plates were analyzed in an automated assay instrument (Screen Machine, Idexx Laboratories). The assay makes use of a propidium iodide dye to estimate the DNA content of each well.
The anti-viral potency in MT-4 cells of the compounds set forth in Tables 1 and 2 was determined using the above technique.

[1] = MT-4 cells, HIV-1 strain IIIB, 5 days, read-out: IC50 (Antiviral Activity of Compounds of the Invention)
[2] = Human immunodeficiency virus 1, MT4, 120 h, MT-4 cells, HIV-1 strain IIIB, 5 days, read-out: IC50 (Antiviral Activity of Compounds of the Invention)

Structure (SMILES)	IC50 [1] [nM]	further results
CC(C)CN(C[C@@H](O)[C@H](Cc1ccc(OCCCN)cc1)NC(=O)OC1CO[C@H]2OCC[C@@H]12)S(=O)(=O)c1ccc2c(c1)OCO2 (stereo in doubt) [Compound 222, (3R,3aS,6aR)-hexahydrofuro[2,3-b]furan-3-yl (1S,2R)-1-[4-(3-aminopropoxy)benzyl]-3-[(1,3-benzodioxol-5-ylsulfonyl)(isobutyl)amino]-2-hydroxypropylcarbamate]		IC50 (Human immunodeficiency virus 1, IIIB, wild type HIV-1 virus, MT4 cells, read-out: Wildtype virus - IC50): 10 to 100 nM
CC(C)CN(CC(O)C(Cc1ccc(OCCN2CCOCC2)cc1)NC(=O)OC(C)(C)C)S(=O)(=O)c1ccc(N)cc1 (stereo not drawn) [Compound 10]	> 100	
CC(C)CN(CC(O)C(Cc1ccc(OCCCN2CCOCC2)cc1)NC(=O)OC(C)(C)C)S(=O)(=O)c1ccc(N)cc1 (stereo not drawn) [Compound 11]	> 100	
COCCN(CCOC)CCOc1ccc(CC(NC(=O)OC(C)(C)C)C(O)CN(CC(C)C)S(=O)(=O)c2cccc(N)c2)cc1 (stereo not drawn) [Compound 13]	> 100	
CC(C)CN(CC(O)C(Cc1ccc(OCCN2CCOCC2)cc1)NC(=O)OC(C)(C)C)S(=O)(=O)c1cccc(N)c1 (stereo not drawn) [Compound 15]	> 100	
CC(C)CN(CC(O)C(Cc1ccc(OCCCN2CCOCC2)cc1)NC(=O)OC(C)(C)C)S(=O)(=O)c1cccc(N)c1 (stereo not drawn) [Compound 16]	> 100	
CC(C)CN(C[C@@H](O)[C@H](Cc1ccc(OCCN2CCOCC2)cc1)NC(=O)OC(C)(C)C)S(=O)(=O)c1ccc2c(c1)OCO2 [Compound 17, Boc Methylenedioxybenzenesulfonamide Ethylmorpholine Tethered Product]		IC50 [2]: > 100 nM
COCCN(CCOC)CCOc1ccc(C[C@H](NC(=O)OC(C)(C)C)[C@H](O)CN(CC(C)C)S(=O)(=O)c2ccc3c(c2)OCO3)cc1 [Compound 18, Boc Methylenedioxybenzenesulfonamide Bis-Methoxyethylamine Tethered Product]		IC50 [2]: 10 to 100 nM
CC(C)CN(C[C@@H](O)[C@H](Cc1ccc(OCCCN2CCOCC2)cc1)NC(=O)OC(C)(C)C)S(=O)(=O)c1ccc2c(c1)OCO2 [Compound 20, Boc Methylenedioxybenzenesulfonamide Propylmorpholine Tethered Product]		IC50 [2]: 10 to 100 nM
CC(C)CN(C[C@@H](O)[C@H](Cc1ccc(OCC(=O)N2CCOCC2)cc1)NC(=O)OC(C)(C)C)S(=O)(=O)c1ccc2c(c1)OCO2 [Compound 21, Boc methylenedioxybenzenesulfonamide Acetylmorpholine Tethered Product]		IC50 [2]: 10 to 100 nM
COCCN(CCOC)CCOc1ccc(CC(NC(=O)OC2CCOC2)C(O)CN(CC(C)C)S(=O)(=O)c2cccc(N)c2)cc1 (stereo not drawn) [Compound 22, bis-THF m-aminophenylsulfonamide benzyl ether]	10 to 100	
CC(C)CN(CC(O)C(Cc1ccc(OCCN2CCOCC2)cc1)NC(=O)OC1CCOC1)S(=O)(=O)c1cccc(N)c1 (stereo not drawn) [Compound 23]	10 to 100	
COCCN(CCOC)CCOc1ccc(CC(NC(=O)OC2CCOC2)C(O)CN(CC(C)C)S(=O)(=O)c2ccc3c(c2)OCO3)cc1 (stereo not drawn) [Compound 24]	10 to 100	
COCCN(CCOC)CCOc1ccc(CC(NC(=O)OC2COCOC2)C(O)CN(CC(C)C)S(=O)(=O)c2cccc(N)c2)cc1 (stereo not drawn) [Compound 25]	10 to 100	
CC(C)CN(CC(O)C(Cc1ccc(OCc2ccccc2)cc1)NC(=O)OC1COC2OCCC12)S(=O)(=O)c1ccc(N)cc1 (stereo not drawn) [Compound 26]	< 1	
COCCN(CCOC)CCOc1ccc(CC(NC(=O)OC2COC3OCCC23)C(O)CN(CC(C)C)S(=O)(=O)c2ccc(N)cc2)cc1 (stereo not drawn) [Compound 27]	> 100	
CC(C)CN(CC(O)C(Cc1ccc(OCCN2CCOCC2)cc1)NC(=O)OC1COC2OCCC12)S(=O)(=O)c1ccc(N)cc1 (stereo not drawn) [Compound 29]	10 to 100	
CC(C)CN(CC(O)C(Cc1ccc(OCCCN2CCOCC2)cc1)NC(=O)OC1COC2OCCC12)S(=O)(=O)c1ccc(N)cc1 (stereo not drawn) [Compound 30]	10 to 100	
CC(C)CN(CC(O)C(Cc1ccc(OCc2ccccn2)cc1)NC(=O)OC1COC2OCCC12)S(=O)(=O)c1ccc(N)cc1 (stereo not drawn) [Compound 31]	1 to 10	
CC(C)CN(CC(O)C(Cc1ccc(O)cc1)NC(=O)OC1COC2OCCC12)S(=O)(=O)c1ccc(N)cc1 (stereo not drawn) [Compound 32]	10 to 100	
Cc1cc(COc2ccc(CC(NC(=O)OC3COC4OCCC34)C(O)CN(CC(C)C)S(=O)(=O)c3ccc(N)cc3)cc2)no1 (stereo not drawn) [Compound 33]	10 to 100	

Structure (SMILES)	IC50 [1] [nM]	further results
COCCN(CCOC)CCOc1ccc(CC(NC(=O)OC2COC3OCCC23)C(O)CN(CC(C)C)S(=O)(=O)c2cccc(N)c2)cc1 (stereo not drawn) [Compound 34]	> 100	
Cc1cc(COc2ccc(CC(NC(=O)OC3COC4OCCC34)C(O)CN(CC(C)C)S(=O)(=O)c3cccc(N)c3)cc2)no1 (stereo not drawn) [Compound 35]	10 to 100	
CC(C)CN(CC(O)C(Cc1ccc(OCc2ccccn2)cc1)NC(=O)OC1COC2OCCC12)S(=O)(=O)c1cccc(N)c1 (stereo not drawn) [Compound 36]	10 to 100	
CC(C)CN(CC(O)C(Cc1ccc(OCCN2CCOCC2)cc1)NC(=O)OC1COC2OCCC12)S(=O)(=O)c1cccc(N)c1 (stereo not drawn) [Compound 37]	10 to 100	
Cc1cc(S(=O)(=O)N(CC(C)C)CC(O)C(Cc2ccc(OCc3ccccc3)cc2)NC(=O)OC2COC3OCCC23)ccc1O (stereo not drawn) [Compound 38]	< 1	
CC(C)CN(C[C@@H](O)[C@H](Cc1ccc(OCc2ccccc2)cc1)NC(=O)O[C@H]1CO[C@H]2OCC[C@H]21)S(=O)(=O)c1ccc2nc(N)sc2c1 [Compound 44, Bis-THF Benzothiazolesulfonamide Benzyl Ether]		IC50 [2]: < 1 nM
CC(C)CN(CC(O)C(Cc1ccc(OCc2ccccc2)cc1)NC(=O)OC1COC2OCCC12)S(=O)(=O)c1ccc2c(c1)OCO2 (stereo not drawn) [Compound 46, Bis-THF Methylenedioxybenzenesulfonamide Benzyl Ether]	< 1	
CC(C)CN(C[C@@H](O)[C@H](Cc1ccc(OCCN2CCOCC2)cc1)NC(=O)O[C@H]1CO[C@H]2OCC[C@H]21)S(=O)(=O)c1ccc2c(c1)OCO2 [Compound 48, Bis-THF Methylenedioxybenzenesulfonamide Ethylmorpholine Tethered Product]		IC50 [2]: 1 to 10 nM
CC(C)CN(C[C@@H](O)[C@H](Cc1ccc(OCCCN2CCOCC2)cc1)NC(=O)O[C@H]1CO[C@H]2OCC[C@H]21)S(=O)(=O)c1ccc2c(c1)OCO2 [Compound 49, Bis-THF Methylenedioxybenzenesulfonamide Propylmorpholine Tethered Product]		IC50 [2]: 1 to 10 nM
CC(C)CN(C[C@@H](O)[C@H](Cc1ccc(OCC(=O)N2CCOCC2)cc1)NC(=O)O[C@H]1CO[C@H]2OCC[C@H]21)S(=O)(=O)c1ccc2c(c1)OCO2 [Compound 50, Bis-THF Methylenedioxybenzenesulfonamide Acetylmorpholine Tethered Product]		IC50 [2]: 10 to 100 nM
COCCN(CCOC)CCOc1ccc(C[C@H](NC(=O)O[C@H]2CO[C@H]3OCC[C@H]32)[C@H](O)CN(CC(C)C)S(=O)(=O)c2ccc3c(c2)OCO3)cc1 [Compound 51, Bis-THF Methylenedioxybenzenesulfonamide Bis-Methoxyethylamine Tethered Product]		IC50 [2]: 1 to 10 nM
Cc1cc(C)n(COc2ccc(C[C@H](NC(=O)O[C@H]3CO[C@H]4OCC[C@H]43)[C@H](O)CN(CC(C)C)S(=O)(=O)c3ccc4c(c3)OCO4)cc2)n1 [Compound 56, Bis-THF Methylenedioxybenzenesulfonamide 1-methyl-3,5-dimethylpyrazole Tethered Product]		IC50 [2]: 10 to 100 nM
CC(C)CN(C[C@@H](O)[C@H](Cc1ccc(OCCn2cccn2)cc1)NC(=O)O[C@H]1CO[C@H]2OCC[C@H]21)S(=O)(=O)c1ccc2c(c1)OCO2 [Compound 57, Bis-THF Methylenedioxybenzenesulfonamide Ethylpyrazole Tethered Product]		IC50 [2]: 1 to 10 nM
COCCN(CCOC)CCOc1ccc(CC(NC(=O)OC(C)(C)C)C(O)CN(CC(C)(C)CCC#N)S(=O)(=O)c2ccc(N)cc2)cc1 (stereo not drawn) [Compound 67]	> 100	
COCCN(CCOC)CCOc1ccc(CC(NC(=O)OC(C)(C)C)C(O)CN(CC(C)(C)CCC#N)S(=O)(=O)c2ccc3c(c2)OCO3)cc1 (stereo not drawn) [Compound 68]	> 100	
COCCN(CCOC)CCOc1ccc(CC(NC(=O)OC2CCOC2)C(O)CN(CC(C)(C)CCC#N)S(=O)(=O)c2ccc3c(c2)OCO3)cc1 (stereo not drawn) [Compound 69]	> 100	
COCCN(CCOC)CCOc1ccc(CC(NC(=O)OC2CCOC2)C(O)CN(CC(C)(C)CCC#N)S(=O)(=O)c2ccc(N)cc2)cc1 (stereo not drawn) [Compound 70]	> 100	
CC(C)(CCC#N)CN(CC(O)C(Cc1ccc(OCc2ccccc2)cc1)NC(=O)OC1COC2OCCC12)S(=O)(=O)c1ccc(N)cc1 (stereo not drawn) [Compound 71]	1 to 10	
CC(C)(CCC#N)CN(CC(O)C(Cc1ccc(OCc2ccccc2)cc1)NC(=O)OC1COC2OCCC12)S(=O)(=O)c1ccc2c(c1)OCO2 (stereo not drawn) [Compound 72]	1 to 10	
COCCN(CCOC)CCOc1ccc(CC(NC(=O)OC2COC3OCCC23)C(O)CN(CC(C)(C)CCC#N)S(=O)(=O)c2ccc3c(c2)OCO3)cc1 (stereo not drawn) [Compound 73]	10 to 100	
COCCN(CCOC)CCOc1ccc(CC(NC(=O)OC2COC3OCCC23)C(O)CN(CC(C)(C)CCC#N)S(=O)(=O)c2ccc(N)cc2)cc1 (stereo not drawn) [Compound 74]	> 100	
